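Step 1: Grow cells in 96-well plates. Step 2: Expose to compound for 48 hours at 5 concentrations. Step 3: Interpolate endpoints linearly; if unreached, use highest concentration. GI50 marks 50% less growth. TGI: total growth inhibition.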
What was measured:
Test in all cases: inhibition of tumour cell growth, NCI panel, 48 h
[1] = test system: BT-549 breast
[2] = test system: HCT-116 colon
[3] = test system: MDA-MB-231 breast
[4] = test system: NCI-H522 lung
[5] = test system: OVCAR-5 ovarian
[6] = test system: PC-3 prostate
[7] = test system: SK-MEL-28 melanoma
[8] = test system: SNB-75 CNS
[9] = test system: SR leukemia
[10] = test system: U251 CNS

Row | SMILES | TGI [1] [µM] | TGI [2] [µM] | TGI [3] [µM] | TGI [4] [µM] | TGI [5] [µM] | TGI [6] [µM] | TGI [7] [µM] | TGI [8] [µM] | TGI [9] [µM] | TGI [10] [µM] | GI50 [1] [µM] | GI50 [2] [µM] | GI50 [3] [µM] | GI50 [4] [µM] | GI50 [5] [µM] | GI50 [6] [µM] | GI50 [7] [µM] | GI50 [8] [µM] | GI50 [9] [µM] | GI50 [10] [µM]
1 | CC(=O)OCCC1c2ccccc2-n2nc(-c3ccccc3)c(O)c21 (stereo not given) | 33.3 | 30.4 | 43.3 | 32.3 | 38.7 | 34.3 | 30.6 | 37.7 | 38.7 | 26.7 |  |  |  |  |  |  |  |  |  | 
2 | COc1ccc2c(c1)c1nn(CCN(C)C)c3ccc4c(=O)n(CCN(C)C)c(=O)n2c4c13 | 2.6 | 0.294 | 0.26 | 0.0747 | 0.44 | 0.262 | 0.854 | 0.0778 | 0.0522 | 1.69 |  |  |  |  |  |  |  |  |  | 
3 | O=C(CCCN1CCC2(CC1)C(=O)NC(=O)N2c1ccccc1)c1ccc(F)cc1 | > 100 | > 100 | > 100 | > 100 | > 100 | > 100 | > 100 | > 100 | > 100 | > 100 |  |  |  |  |  |  |  |  |  | 
4 | Cc1cc(C)c(S(=O)(=O)N[C@@H](/C=C(\Br)CO)C(C)C)c(C)c1 | 85.2 | > 100 | > 100 | 37 | > 100 | 48.9 | > 100 | > 100 | 68.8 | > 100 |  |  |  |  |  |  |  |  |  | 
5 | COc1ccc(/C=C2\CN(C(=O)CCN3CCC(=NO)CC3)C/C(=C\c3ccc(OC)cc3)C2=O)cc1 | 6.08 | 3.23 | 4.55 | 5.5 | 3.92 | 4.74 | 4.17 | 9.33 | 29.1 | 3.47 | 2.17 | 1.74 | 2.11 | 2.17 | 1.83 | 2 | 2 | 2.14 | 0.616 | 1.74
6 | CC(=O)Nc1ccc(Nc2cc(=O)n(C)c(=O)[nH]2)cc1 | > 100 | > 100 | > 100 | > 100 | > 100 | > 100 | > 100 | > 100 | > 100 | > 100 |  |  |  |  |  |  |  |  |  | 
7 | CC(=O)Oc1ccccc1[C@H]1CC(=O)C[C@H](c2ccccc2OC(C)=O)C12C(=O)c1ccccc1C2=O | 84.5 | 88.9 | 94.6 | 92.8 | > 100 | > 100 | 51.2 | > 100 | > 100 | > 100 |  |  |  |  |  |  |  |  |  | 
8 | O=C(NCCN1C(=O)CN=C(c2ccc(Cl)cc2)c2cc(Cl)ccc21)OCc1ccccc1 | 32.4 | 24.8 | 32.3 | 49.9 | 49.7 | 28.3 | > 100 | 42.2 | 33.3 | 30.1 |  |  |  |  |  |  |  |  |  | 
9 | O=C(O)c1cccc(S(=O)(=O)NN2C(=O)CSC2c2ccccc2)c1 (stereo not given) | > 100 | > 100 | > 100 | > 100 | > 100 | > 100 | > 100 | > 100 | > 100 | > 100 |  |  |  |  |  |  |  |  |  | 
10 | CC(NC1=CC(=O)c2ncccc2C1=O)C(O)c1ccccc1 (stereo not given) | 7.25 | 15.2 | 6.94 | 24.8 | 29.3 | 70.5 | 10.9 | 9.6 | > 100 | 14.3 |  |  |  |  |  |  |  |  |  | 
11 | COc1cc(N(CCC#N)CCC#N)ccc1/C(N=Nc1ccc(C)cc1)=N/NC(=O)c1cc(Br)ccc1O | 62.6 | 41.2 | 55.2 | 50.3 | > 100 | 66.5 | 85.2 | 75 | 76.3 | > 100 |  |  |  |  |  |  |  |  |  | 
12 | CC(=O)OCC1OC(Nc2ccc3nc(C)n(-c4cccc(C)c4)c(=O)c3c2)C(OC(C)=O)C(OC(C)=O)C1OC(C)=O (stereo not given) | > 62.5 | > 62.5 | > 62.5 | > 62.5 | > 62.5 | > 62.5 | > 62.5 | > 62.5 | > 62.5 | > 62.5 |  |  |  |  |  |  |  |  |  | 
13 | Oc1c(C2=NNC(c3cccs3)C2)ccc2ccccc12 (stereo not given) | > 100 | 30.6 | 91.2 | 60.6 | > 100 | > 100 | > 100 | > 100 | 29.3 | 69.5 |  |  |  |  |  |  |  |  |  | 
14 | O=C1C(C(O)(C(F)(F)Cl)C(F)(F)Cl)CCC1C(O)(C(F)(F)Cl)C(F)(F)Cl (stereo not given) | > 10 | 5.71 | > 10 | > 10 | > 10 | > 10 | > 10 | > 10 | > 10 | > 10 |  |  |  |  |  |  |  |  |  | 
15 | CCOC(=O)N1CCN(Cc2cc(=O)n3cc(C)ccc3n2)CC1 | > 100 | > 100 | > 100 | > 100 | > 100 | > 100 | > 100 | > 100 | > 100 | > 100 |  |  |  |  |  |  |  |  |  | 
16 | Cc1ccc(S(=O)(=O)NC(=O)NC(CO)C(=O)O)cc1 (stereo not given) | > 100 | > 100 | > 100 | > 100 | > 100 | > 100 | > 100 | > 100 | > 100 | > 100 |  |  |  |  |  |  |  |  |  | 
